From patent US20080118943A1 (priority 2005, published 2008)

How the values were obtained:
[1] = tested on: L. plantarum strains (wild type, pNZ7019, pNZ7021); assay: Growth rate of L. plantarum strains on CDM with folate dependent metabolites and methotrexate; format: cell-based, Lactobacillus plantarum; conditions: 0 to 2.5 mg/L MTX
Method: (§1) Wild type L. plantarum WCFS1 strains and its derivatives were grown at 37° C. on Chemically Defined Media (CDM), containing 19 g/L β-phosphoglycerate (6) or modified CDM. In this modified CDM, glycine, inosine, orotic acid, thymidine, guanine, adenine, uracil and xantine were omitted from the normal CDM. Additionally […] chloroamphenicol was added to all the media used. Methotrexate (Sigma, […]) was added to both types of CDM, in concentrations ranging from 0 to 10 mg/l.
(§2) Microtiter plates were used to determine the growth rate of the three L. plantarum strains harbouring the different vectors. The growth of the three strains was monitored in a 96 well microtiter plate for 35 hours using a spectrophotometer (SPECTRAmax®, Molecular Devices, Sunnyvale, Calif., USA). The growth was tested on the two types of media, and each construct was analyzed in triplicate on both media for the following MTX concentrations: 0, 0.3125, 0.625, 1.25 and 2.5 mg/L.

[2] = tested on: wild type L. plantarum WCFS1; assay: Growth rate of wild type L. plantarum on modified CDM (lacking folate dependent metabolites) with methotrexate; format: cell-based, Lactobacillus plantarum; conditions: for growth inhibition of the wild type strain: modified CDM
Method: as §1, §2

L. lactis = conditions: cited from earlier work
[3] = tested on: folate overproducing L. plantarum strains; assay: Growth rate of folate overproducing L. plantarum strains (pNZ7019, pNZ7021) on modified CDM with methotrexate; format: cell-based, Lactobacillus plantarum; conditions: 2.5 mg/L MTX
Method: as §1, §2

Row | Structure (SMILES) | growth inhibition in the presence of folate dependent metabolites [1] | growth inhibition of the wild type strain ([2]; 2.5 mg/L MTX) | growth rate (μ) of the wild type ([2]; 1.25, 1.5, 2.0 and 2.5 mg/l MTX, medium lacking folate dependent metabolites) [h⁻¹] | growth inhibition of the wild type strain ([2]; between 0 and 2.5 mg/L MTX) | sensitivity to antifolate (L. lactis) | growth of the folate overproducing strains [3]
1 | CN(Cc1cnc2nc(N)nc(N)c2n1)c1ccc(C(=O)N[C@@H](CCC(=O)O)C(=O)O)cc1 [MTX, methotrexate] | none of the tested strains was significantly inhibited | complete growth inhibition | < 0.05 | dose dependent growth inhibition | insensitive | grew well
2 | COc1cc(Cc2cnc(N)nc2N)cc(OC)c1OC [trimethoprim] |  |  |  |  | insensitive | 
